The values that follow come from publication PMC4278210, “Sargassopenillines A–G, 6,6-Spiroketals from the Alga-Derived Fungi Penicillium thomii and Penicillium lividum” (Marine Drugs, 2014).

A word on the IC50: it is the concentration needed to halve the response being measured. What is called inhibition is the change of the read-out against control, counted positive when it falls. Read a low inhibition as little suppression.

SMILES strings stand for the structures.

Series [1] deals with oncogenic nuclear factor AP-1. Description: Basal AP-1-dependent transcriptional activity, luciferase reporter in JB6 Cl41 cells. The following applies: Mus musculus; JB6 Cl41 cells with AP-1 luciferase reporter; after 12 h of treatment; read-out: inhibition of transcriptional activity of AP-1, IC50. The series is classed as cell-based. The procedure:
The effect of compounds 1–3 and 7 on the basal AP-1-dependent transcriptional activity was also studied using JB6 Cl41 cells stably expressing a luciferase reporter gene controlled by an AP-1-DNA binding sequence.
The effects of the compounds on the basal transcriptional activities of AP-1 were evaluated using the JB6 Cl41 cell line stably expressing a luciferase reporter gene controlled by an AP-1-DNA binding sequence. The experiments were performed as previously reported with slight modifications.
For orientation: In a reporter assay the amount or activity of a reporter protein is the signal.

Series [2] concerns CD-1 murine peritoneal macrophages. Nature of the series: Macrophage adhesion test. The format is cell-based. The settings on record: Mus musculus, 10 µM (non-toxic concentration), 2 h incubation at 37 °C. The procedure:
Mice were sacrificed by cervical dislocation. Peritoneal macrophages were isolated using standard procedures. For this purpose, 3 mL of PBS (pH 7.4) was immediately injected into the peritoneal cavity and the body intensively palpated for 1–2 min. Then, the peritoneal fluid was aspirated with a syringe and transferred to Petri dishes. Petri dishes with the fluid were incubated at 37 °C for 1–2 h to facilitate attachment of peritoneal macrophages to the dish. Then, a cell monolayer was triply flushed with PBS (pH 7.4) to delete attendant lymphocytes, fibroblasts and erythrocytes. Subsequently, macrophages were removed from the surface of the dishes with a scraper and flow of a saline solution, and then placed on an ice bath until use. The working concentration of cells was usually 1–2 × 10^6 cells/mL. The number of adhered cells was estimated according to standard method with some modifications.
Twenty […] of test compound solutions (at non-toxic concentration 10 μM) and […] of macrophage suspension were added to 96-well flat-bottom plates. After incubation for 2 h at 37 °C, cells were fixed with 70% ethanol solution ([…] per well) for 15 min at RT. […] Finally, the SDS/trypan blue solution absorbance was detected spectrophotometrically at 590 nm using a plate reader. The percentage of adhered cells compared to the control level of Trypan blue absorbance was calculated. […]

The nature of series [3]: Radical scavenging activity against DPPH. The procedure:
The experiments were performed as previously reported.

Series [4] in a line: Cytotoxicity towards CD-1 mouse splenocytes. The format is cell-based. The following applies: assayed up to 100 µM, read-out: cytotoxicity against splenocytes IC50. Here is the method:
The effect of the compounds on the cells viability was evaluated using the MTS test, which is based on the reduction of MTS into its formazan product by alive cells. Cytotoxicity towards CD-I mouse splenocytes was determined according to Freshney. Hemolytic activity towards CD-I mouse erythrocytes was determined as previously described.

Regarding `CC(=O)OC1C2=C(CO[C@@]13O[C@@H](C)C[C@H](O)[C@@H]3OC(C)=O)C(=O)C(C)(OC(C)=O)C(=O)C2` (stereo partly shown) [compound 3, sargassopenilline C], in series [1], the IC50 is 15 µM. Compound `CC(=O)OC1C2=C(CO[C@@]13O[C@@H](C)CC[C@@H]3OC(C)=O)C(=O)C(C)=C(O)C2=O` (stereo partly shown) [compound 4, sargassopenilline D] returned an inhibition at 10 µM in series [2] of 30 to 40%. Take `Cc1c(O)cc2c(c1O)CO[C@@]1(O[C@@H](C)CC[C@@H]1O)[C@@H]2O` [compound 1, sargassopenilline A]: the IC50 in series [3] came out at 100 µM. As for `C[C@H]1C[C@H](O)C[C@@]2(CC3=C(CO2)C(=O)[C@](C)(O)[C@H](O)C3)O1` [compound 5, sargassopenilline E], the IC50 in series [4] amounted to 38 µM; in series [3] it was 50 µM. For the compound `O=C1O[C@H]([C@@H](O)CO)C(O)=C1O` [Ascorbic acid, reference compound], the IC50 in series [3] stood at 21.3 µM. Take `CC(=O)O[C@H]1CC[C@H](C)O[C@@]12OCC1=C(C[C@@H](O)[C@@](C)(O)C1=O)C2O` (stereo partly shown) [compound 6, sargassopenilline F]: the inhibition at 10 µM in series [2] was in the range of 30 to 40%.
